{"source": "patent US8623924B2", "about": "“Compositions and methods for modulating metabolic pathways” (Nusirt Sciences, Inc., priority 2011, dated 2014)", "key": {"[1]": {"tested_on": "myotube mitochondrial biogenesis", "test": "Myotube mitochondrial biogenesis (NAO binding), Example 1", "format": "cell-based", "settings": "assessed fluorometrically via NAO binding", "description": "We next investigated the role of intact leucine (0-0.5 mM) vs. its metabolites, α-ketoisocaproic acid (KIC) (0-0.5 mM) and HMB (0-50 μM). […] Both leucine and HMB increased myotube mitochondrial biogenesis (assessed fluorometrically via NAO binding) by ˜50%, (p<0.005, FIG. 3)."}, "[2]": {"tested_on": "PGC-1α, NRF-1 and UCP3 genes", "test": "Expression of mitochondrial regulatory and component genes", "format": "cell-based"}, "[3]": {"biological_target": "T1, SIRT1 (Homo sapiens, UniProt Q96EB6)", "T1 construct": "purchased ENZO Life Sciences International, Inc. BML-AK555", "T1 sequence (Q96EB6 1-747)": "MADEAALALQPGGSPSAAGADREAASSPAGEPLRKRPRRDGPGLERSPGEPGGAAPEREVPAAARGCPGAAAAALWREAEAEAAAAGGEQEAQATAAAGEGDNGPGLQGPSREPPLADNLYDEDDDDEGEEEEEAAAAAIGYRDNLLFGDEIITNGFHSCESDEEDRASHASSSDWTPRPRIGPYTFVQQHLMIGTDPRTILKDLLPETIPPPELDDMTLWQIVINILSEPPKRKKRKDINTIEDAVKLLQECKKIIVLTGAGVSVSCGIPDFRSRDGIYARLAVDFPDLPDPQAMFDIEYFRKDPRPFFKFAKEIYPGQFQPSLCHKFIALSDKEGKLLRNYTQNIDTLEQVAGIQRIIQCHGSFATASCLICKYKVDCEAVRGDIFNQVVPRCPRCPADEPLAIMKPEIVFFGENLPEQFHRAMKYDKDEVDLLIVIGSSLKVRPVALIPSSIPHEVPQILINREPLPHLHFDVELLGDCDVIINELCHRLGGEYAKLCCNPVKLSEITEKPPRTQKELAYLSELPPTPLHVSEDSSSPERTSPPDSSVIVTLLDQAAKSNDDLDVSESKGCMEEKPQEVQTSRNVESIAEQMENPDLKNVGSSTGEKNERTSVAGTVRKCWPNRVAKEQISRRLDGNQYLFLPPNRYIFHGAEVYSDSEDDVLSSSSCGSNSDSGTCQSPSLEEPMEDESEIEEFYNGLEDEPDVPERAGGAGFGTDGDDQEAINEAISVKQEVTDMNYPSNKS", "test": "SIRT1 activity, cell-free fluorimetric deacetylation assay", "format": "biochemical", "settings": "cell-free system", "description": "SIRT1 activity was measured by using the SIRT1 Fluorimetric Drug Discovery Kit (BML-AK555, ENZO Life Sciences International, Inc. PA, USA). In this assay, SIRT1 activity is assessed by the degree of deacetylation of a standardized substrate containing an acetylated lysine side chain. The substrate utilized is a peptide containing amino acids 379-382 of human p53 (Arg-His-Lys-Lys[Ac]), an established target of SIRT1 activity; SIRT1 activity is directly proportional to the degree of deacetylation of Lys-382. Samples were incubated with peptide substrate (25 μM), and NAD^+ (500 μM) in a phosphate-buffered saline solution at 37° C. on a horizontal shaker for 45 minutes. The reaction was stopped with the addition of 2 mM nicotinamide and a developing solution that binds to the deacetylated lysine to form a fluorophore. Following 10 minutes incubation at 37° C., fluorescence was read in a plate-reading fluorometer at an excitation wavelength of 360 nm and an emission wavelength of 450 nm. […] A standard curve was constructed using deacetylated substrate (0-10 μM)."}, "[4]": {"biological_target": "T2, Sirt3 (Mus musculus, UniProt Q8R104)", "T2 construct": "endogenous in cells; host or cells: 3T3-L1 adipocytes (mitochondrial protein)", "T2 sequence (Q8R104 1-334)": "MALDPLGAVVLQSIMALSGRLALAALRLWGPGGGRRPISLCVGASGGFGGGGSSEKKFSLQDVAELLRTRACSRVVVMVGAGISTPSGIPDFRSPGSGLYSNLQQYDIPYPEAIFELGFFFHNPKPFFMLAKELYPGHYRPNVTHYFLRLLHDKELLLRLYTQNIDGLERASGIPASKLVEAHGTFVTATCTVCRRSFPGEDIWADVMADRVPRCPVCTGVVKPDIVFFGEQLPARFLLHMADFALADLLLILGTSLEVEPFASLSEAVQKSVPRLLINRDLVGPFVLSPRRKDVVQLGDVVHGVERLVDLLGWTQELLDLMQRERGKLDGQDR", "test": "Sirt3 activity in mitochondrial protein of treated 3T3-L1 adipocytes", "format": "cell-based", "settings": "4 hours, leucine 0.5 mM, HMB 5 uM, resveratrol 200 nM"}, "[5]": {"tested_on": "Adipocytes (3T3-L1)", "test": "Fatty acid oxidation (3H-palmitate) in 3T3-L1 adipocytes", "format": "cell-based", "settings": "high (25 mM) glucose, 4 hours; leucine 0.5 mM, HMB 5 uM, resveratrol 200 nM; vs. control", "description": "High glucose medium reduced fatty acid oxidation by 46% (p<0.05).\nFatty acid oxidation was measured using ^3H-labeled palmitate oxidation, with the ^3H label trapped as water as a result of the fat oxidation. The ^3H was then measured via scintillation counter."}, "[6]": {"tested_on": "IL-6", "test": "Inflammatory biomarker IL-6 in diet-induced obese mice", "format": "in vivo", "settings": "6 weeks on diet, low resveratrol 12.5 mg/kg diet, low HMB 2 g CaHMB/kg diet, high HMB 10 g CaHMB/kg diet, leucine 2.42% of diet"}, "[7]": {"biological_target": "T3, Sirt1 (Mus musculus, UniProt Q923E4)", "T3 construct": "from tissue; host or cells: adipose tissue of c57/BL6 mice", "T3 sequence (Q923E4 1-737)": "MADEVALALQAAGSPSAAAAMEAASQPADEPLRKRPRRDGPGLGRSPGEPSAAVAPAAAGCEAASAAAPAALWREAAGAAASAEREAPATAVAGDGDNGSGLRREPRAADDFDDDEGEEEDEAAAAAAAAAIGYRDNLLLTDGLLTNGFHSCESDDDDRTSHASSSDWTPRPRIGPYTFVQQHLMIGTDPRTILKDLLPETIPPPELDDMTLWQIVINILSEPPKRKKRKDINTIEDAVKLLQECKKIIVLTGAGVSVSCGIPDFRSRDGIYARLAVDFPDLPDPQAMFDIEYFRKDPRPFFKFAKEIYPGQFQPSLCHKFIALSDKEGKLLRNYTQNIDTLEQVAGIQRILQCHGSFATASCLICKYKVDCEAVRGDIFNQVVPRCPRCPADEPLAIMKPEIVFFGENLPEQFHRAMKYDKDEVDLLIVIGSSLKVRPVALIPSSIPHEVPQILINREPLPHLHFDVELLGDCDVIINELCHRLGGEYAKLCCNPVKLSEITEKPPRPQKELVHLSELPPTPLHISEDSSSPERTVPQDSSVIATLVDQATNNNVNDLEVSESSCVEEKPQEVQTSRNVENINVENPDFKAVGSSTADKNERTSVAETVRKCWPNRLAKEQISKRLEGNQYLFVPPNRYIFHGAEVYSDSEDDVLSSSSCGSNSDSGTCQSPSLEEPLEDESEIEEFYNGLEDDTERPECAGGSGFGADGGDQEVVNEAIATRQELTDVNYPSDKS", "test": "Adipose tissue Sirt1 activity in diet-induced obese mice", "format": "in vivo", "settings": "low dose of resveratrol, HMB, or their combinations with HMB or leucine (FIG. 10)"}}, "note": "Entries after “also recorded” stand apart in the source; their conditions may differ. Marks after values point to notes of the source that are not given here."}
{"compound": "CC(C)(O)CC(=O)O", "note": "[HMB]", "values": [{"measurement": "increase in myotube mitochondrial biogenesis", "setting": "[1]", "value": "~50", "unit": "%"}, {"measurement": "expression of mitochondrial regulatory (PGC-1α and NRF-1) and component (UCP3) genes", "setting": "[2]", "value": "stimulated expression"}, {"measurement": "SIRT1 activity", "setting": "[3]", "value": "significantly increased SIRT1 activity"}, {"measurement": "increase in Sirt3 activity", "setting": "[4]", "value": "no significant independent effect; also recorded: no independent effects"}, {"measurement": "increase in fatty acid oxidation, high glucose", "setting": "[5]", "value": 29, "unit": "%"}, {"measurement": "IL-6 (pg/mL)", "setting": "[6]", "value": "19.9 ± 3.1^a pg/mL"}, {"measurement": "adipose tissue Sirt1 activity", "setting": "[7]", "value": "Neither resveratrol nor HMB exerted significant independent effects"}]}
